From article PMC8840081, “Phenylalanine-Based AMPA Receptor Antagonist as the Anticonvulsant Agent with Neuroprotective Activity—In Vitro and In Vivo Studies” (Molecules, 2022)

How the values were obtained:
[1] = molecular target: T1, Human MAO-B (Homo sapiens, UniProt P27338); assay: MAO-B inhibition, Amplex Red Monoamine Oxidase kit; assay type: biochemical
T1 construct: purchased Merck KGaA (Darmstadt, Germany)
T1 sequence (P27338 1-520): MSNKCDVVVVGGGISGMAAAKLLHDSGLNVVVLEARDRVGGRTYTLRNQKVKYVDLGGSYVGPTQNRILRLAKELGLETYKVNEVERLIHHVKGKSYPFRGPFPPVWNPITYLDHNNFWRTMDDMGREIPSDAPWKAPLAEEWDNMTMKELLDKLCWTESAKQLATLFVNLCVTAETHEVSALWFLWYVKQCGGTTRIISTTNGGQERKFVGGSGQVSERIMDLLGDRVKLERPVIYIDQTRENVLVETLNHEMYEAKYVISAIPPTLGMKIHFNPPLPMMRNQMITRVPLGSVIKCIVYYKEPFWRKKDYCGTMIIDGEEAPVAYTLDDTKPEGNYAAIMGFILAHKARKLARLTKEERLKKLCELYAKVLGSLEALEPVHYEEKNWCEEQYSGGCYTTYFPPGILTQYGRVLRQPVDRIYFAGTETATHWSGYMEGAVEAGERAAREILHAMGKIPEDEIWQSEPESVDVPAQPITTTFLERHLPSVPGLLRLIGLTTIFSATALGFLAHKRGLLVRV
Description: Human MAO-B was purchased from Merck KGaA (Darmstadt, Germany). The activity of compound 1 and 8 was measured in the presence of p-tyramine (200 μM). […] Firstly, inhibitors’ activity was measured in a concentration of 1 μM. […] For compounds that inhibited the enzyme by more than 50% further studies were conducted to obtain IC50 from concentration–response curves. All calculations were made in Microsoft Excel and GraphPadPrism software. All experiments were performed in duplicate and data are expressed as mean ± SEM.

[2] = test system: heat hyperalgesia in diabetic mice; assay: diabetic (STZ) neuropathic pain model, hot plate test; assay type: in vivo; conditions: 30 mg/kg i.p.
Description: (§1) Behavioral experiments were carried out in male Albino Swiss (CD-1) mice weighing 18–22 g. The mice were kept in cages, in groups of 10 animals. They had free access to food and water before experiments, and were maintained at room temperature 22–24 °C, under 12:12 (light/dark) cycle. For the assays the animals were selected randomly. After the experiments the animals were euthanized by cervical dislocation. Experimental procedures for in vivo tests were approved by the Local Ethics Committee of the Jagiellonian University in Krakow (Approval No. 33/2018; release date: 1.02.2018) and the treatment of animals was performed in full accordance with ethical standards laid down in respective Polish and EU regulations (Directive 2010/63/EU).
Oxaliplatin was purchased from Activate Scientific GmbH (Prien, Germany). PTZ and STZ were provided by Merck KGaA (Darmstadt, Germany). […]
(§2) To induce type I diabetes and diabetic neuropathic pain, mice were administered STZ, an alkylating antitumor drug that destroys insulin-secreting islet cells. […] Blood glucose levels were measured 1 day before (referred to as ‘day 0′) and repeatedly 1, 2 and 3 weeks after STZ injection using a blood glucose monitoring system (AccuChek Active, Roche, France). […]
The effect of 1 on heat hyperalgesia was assessed using the hot plate test. […]

[3] = test system: cold hyperalgesia in oxaliplatin-treated mice; assay: oxaliplatin-induced neuropathic pain model, cold plate test; assay type: in vivo; conditions: 10 and 30 mg/kg i.p., early and late phase
Description: as §1
Oxaliplatin was purchased from Activate Scientific GmbH (Prien, Germany). PTZ and STZ were provided by Merck KGaA (Darmstadt, Germany). For the in vivo tests, the compound 1 was suspended in 1% Tween 80 solution (Polskie Odczynniki Chemiczne, Gliwice, Poland), then being administered intraperitoneally 1 h before tests. For the evaluation of anticonvulsant properties of the test compound, a fixed dose of 100 mg/kg, was used. Since many AEDs at lower doses are used as analgesic drugs, for pain tests the doses 10 and 30 mg/kg were selected. […]
The effect of 1 on cold pain threshold was assessed using the cold plate test. […]

[4] = test system: tactile allodynia in diabetic mice; assay: diabetic (STZ) neuropathic pain model, von Frey test; assay type: in vivo; conditions: 30 mg/kg i.p.
Description: Behavioral experiments were carried out in male Albino Swiss (CD-1) mice weighing 18–22 g. The mice were kept in cages, in groups of 10 animals. They had free access to food and water before experiments, and were maintained at room temperature 22–24 °C, under 12:12 (light/dark) cycle. For the assays the animals were selected randomly. After the experiments the animals were euthanized by cervical dislocation. […]
as §2
The electronic von Frey unit (Bioseb, France) is supplied with a single flexible filament applying increasing force (from 0 to 10 g) against the plantar surface of the hind paw. In this assay the nocifensive paw withdrawal response automatically turns off the stimulus and the mechanical pressure that evoked the response was recorded. […]

[5] = test system: 6-Hz psychomotor seizures in mice; assay: 6-Hz test; assay type: in vivo; conditions: 100 mg/kg i.p.
Description: as §1
Oxaliplatin was purchased from Activate Scientific GmbH (Prien, Germany). PTZ and STZ were provided by Merck KGaA (Darmstadt, Germany). For the in vivo tests, the compound 1 was suspended in 1% Tween 80 solution (Polskie Odczynniki Chemiczne, Gliwice, Poland), then being administered intraperitoneally 1 h before tests. For the evaluation of anticonvulsant properties of the test compound, a fixed dose of 100 mg/kg, was used. Since many AEDs at lower doses are used as analgesic drugs, for pain tests the doses 10 and 30 mg/kg were selected.
This test was performed according to Barton et al.. […]

## NC(Cc1cc(-c2cc(O)ccc2O)c(Cl)c([N+](=O)[O-])c1)C(=O)O (centres unmarked) [Compound 1]
[1]; dose-dependent curve
  maximum MAO-B inhibition attained: 52%
[1]; p-tyramine 200 μM
  IC50: 278 ± 29 nM
[1]; read-out: MAO-B inhibition, screening
  inhibition at 1 µM: > 50%
[2]
  antihyperalgesic activity, hot plate test (latency to pain reaction): antihyperalgesic activity was not observed
[3]
  effect on cold hyperalgesia, cold plate test: unable to attenuate cold hyperalgesia
[4]
  antiallodynic activity, von Frey test: not able to attenuate tactile allodynia
[5]
  Mortality rate (%): 0%
[5]; 1 h before test
  X/Y, number of mice protected (X) per number of mice tested (Y): 3/4
